Reference: patent US9765075B2, “Substituted bridged urea analogs as sirtuin modulators” (GLAXOSMITHKLINE LLC, priority 2013, dated 2017)

Biological target: T1, SIRT1 (Homo sapiens, UniProt Q96EB6)
T1 sequence (Q96EB6 1-747): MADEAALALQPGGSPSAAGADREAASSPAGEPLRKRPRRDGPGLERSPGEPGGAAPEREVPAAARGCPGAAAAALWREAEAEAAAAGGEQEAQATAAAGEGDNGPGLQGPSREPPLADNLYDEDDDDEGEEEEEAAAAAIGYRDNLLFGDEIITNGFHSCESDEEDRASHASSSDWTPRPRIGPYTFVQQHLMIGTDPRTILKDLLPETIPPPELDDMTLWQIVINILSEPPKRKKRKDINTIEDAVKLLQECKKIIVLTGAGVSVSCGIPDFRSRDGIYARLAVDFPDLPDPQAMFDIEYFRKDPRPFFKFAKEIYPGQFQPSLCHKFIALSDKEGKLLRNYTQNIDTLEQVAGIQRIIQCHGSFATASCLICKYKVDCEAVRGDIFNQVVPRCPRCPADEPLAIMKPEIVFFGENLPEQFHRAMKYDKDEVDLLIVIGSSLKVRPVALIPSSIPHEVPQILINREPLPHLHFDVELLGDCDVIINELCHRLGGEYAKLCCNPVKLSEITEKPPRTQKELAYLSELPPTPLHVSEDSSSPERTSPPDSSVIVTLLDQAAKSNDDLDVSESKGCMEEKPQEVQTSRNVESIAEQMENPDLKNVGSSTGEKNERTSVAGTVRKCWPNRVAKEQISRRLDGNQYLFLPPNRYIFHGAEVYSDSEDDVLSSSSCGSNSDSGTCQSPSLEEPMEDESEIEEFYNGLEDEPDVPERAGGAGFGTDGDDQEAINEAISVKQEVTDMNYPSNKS
Test: Trp mass spectrometry assay (SIRT1 activation)
Assay type: biochemical
Details: Trp mass spectrometry assay; for Tryp AVG EC1.5 (μM): EC1.5 = concentration of test compound that results in 150% activation of SIRT1; for Emax: percent maximum fold activation of SIRT1, read-out: Tryp % Fold Act
Method in brief: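 Activation is expressed as EC1.5, the concentration raising activity 50% above DMSO control, and as maximum percent of control. Mass-spec readout was OAADPR or deacetylated Trp peptide after a formic-acid-quenched 25-min, 25 °C reaction: 10 nM bacterially expressed His-SIRT1, 0.5 μM acetyl-p53-derived peptide, 120 μM NAD+, pH 7.5 HEPES with […].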

Tryp AVG EC1.5 (μM)	Emax	Compound
B (EC1.5 1-25 μM)	≥ 150%	O=C(Nc1cccnn1)N1c2nc(-c3cccc(C(F)(F)F)c3)ccc2N2CCC1CC2 [Example 171]
B (EC1.5 1-25 μM)	≥ 150%	O=C(Nc1ccncn1)N1c2nc(-c3cccc(C(F)(F)F)c3)ccc2N2CCC1CC2 [Example 172]
A (EC1.5<1 μM)	≥ 150%	Cc1nc(NC(=O)N2c3nc(-c4cccc(C(F)(F)F)c4)ccc3N3CCC2CC3)sc1C [Example 173]
A (EC1.5<1 μM)	≥ 150%	O=C(Nc1cncc(F)c1)N1c2nc(-c3cccc(OC(F)(F)F)c3)ccc2N2CC[C@H]1C2 [Example 174]
A (EC1.5<1 μM)	≥ 150%	Cn1ncc2cc(NC(=O)N3c4nc(-c5cccc(OC(F)(F)F)c5)ccc4N4CC[C@H]3C4)ccc21 [Example 175]
A (EC1.5<1 μM)	≥ 150%	COc1nccc(NC(=O)N2c3nc(-c4cccc(OC(F)(F)F)c4)ccc3N3CC[C@H]2C3)n1 [Example 176]
A (EC1.5<1 μM)	≥ 150%	Cn1ccc(NC(=O)N2c3nc(-c4cccc(OC(F)(F)F)c4)ccc3N3CC[C@H]2C3)n1 [Example 177]
A (EC1.5<1 μM)	≥ 150%	N#Cc1cccc(-c2ccc3c(n2)N(C(=O)Nc2cccc(-c4cnco4)c2)[C@H]2CCN3C2)c1 [Example 178]
A (EC1.5<1 μM)	≥ 150%	Cc1nc(NC(=O)N2c3nc(-c4cccc(C#N)c4)ccc3N3CC[C@H]2C3)sc1C [Example 179]
A (EC1.5<1 μM)	≥ 150%	N#Cc1cccc(-c2ccc3c(n2)N(C(=O)Nc2cccnc2)[C@H]2CCN3C2)c1 [Example 180]
A (EC1.5<1 μM)	≥ 150%	N#Cc1cccc(-c2ccc3c(n2)N(C(=O)Nc2ccncn2)[C@H]2CCN3C2)c1 [Example 181]
A (EC1.5<1 μM)	≥ 150%	N#Cc1cccc(-c2ccc3c(n2)N(C(=O)Nc2cncc(F)c2)[C@H]2CCN3C2)c1 [Example 182]
B (EC1.5 1-25 μM)	≥ 150%	COc1nccc(NC(=O)N2c3nc(-c4cccc(C#N)c4)ccc3N3CC[C@H]2C3)n1 [Example 183]
A (EC1.5<1 μM)	≥ 150%	Cn1ncc2cc(NC(=O)N3c4nc(-c5cccc(C#N)c5)ccc4N4CC[C@H]3C4)ccc21 [Example 184]
B (EC1.5 1-25 μM)	≥ 150%	Cn1ccc(NC(=O)N2c3nc(-c4cccc(C#N)c4)ccc3N3CC[C@H]2C3)n1 [Example 185]
B (EC1.5 1-25 μM)	≥ 150%	Cn1cc(NC(=O)N2c3nc(-c4cccc(C#N)c4)ccc3N3CC[C@H]2C3)cn1 [Example 186]
B (EC1.5 1-25 μM)	≥ 150%	Cc1nc(NC(=O)N2c3nc(-c4cccc(N5CCCC5)c4)ccc3N3CC[C@H]2C3)sc1C [Example 187]
B (EC1.5 1-25 μM)	≥ 150%	COc1nccc(NC(=O)N2c3nc(-c4cccc(N5CCCC5)c4)ccc3N3CC[C@H]2C3)n1 [Example 188]
A (EC1.5<1 μM)	≥ 150%	N#Cc1cccc(-c2ccc3c(n2)N(C(=O)Nc2cnccn2)[C@H]2CCN3C2)c1 [Example 189]
B (EC1.5 1-25 μM)	≥ 150%	COc1cncc(NC(=O)N2c3nc(-c4cccc(C#N)c4)ccc3N3CC[C@H]2C3)n1 [Example 190]

Tryp AVG EC1.5 (μM)	Emax	Compound
A (EC1.5<1 μM)	≥ 150%	O=C(Nc1cccc(-c2cnco2)c1)N1c2nc(-c3cccc(N4CCCC4)c3)ccc2N2CC[C@H]1C2 [Example 191]
B (EC1.5 1-25 μM)	≥ 150%	O=C(Nc1cccnc1)N1c2nc(-c3cccc(N4CCCC4)c3)ccc2N2CC[C@H]1C2 [Example 192]
B (EC1.5 1-25 μM)	≥ 150%	O=C(Nc1ccncn1)N1c2nc(-c3cccc(N4CCCC4)c3)ccc2N2CC[C@H]1C2 [Example 193]
A (EC1.5<1 μM)	≥ 150%	O=C(Nc1cccnc1)N1c2nc(-c3cccc(C(F)(F)F)c3)ccc2N2CCC[C@@H]1C2 [Example 194]
B (EC1.5 1-25 μM)	≥ 150%	O=C(Nc1ccncc1)N1c2nc(-c3cccc(C(F)(F)F)c3)ccc2N2CCC[C@@H]1C2 [Example 195]
B (EC1.5 1-25 μM)	≥ 150%	O=C(Nc1cccnn1)N1c2nc(-c3cccc(C(F)(F)F)c3)ccc2N2CCC[C@@H]1C2 [Example 196]
A (EC1.5<1 μM)	≥ 150%	COc1cncc(NC(=O)N2c3nc(-c4cccc(OC(F)(F)F)c4)ccc3N3CC[C@H]2C3)n1 [Example 197]
B (EC1.5 1-25 μM)	≥ 150%	O=C(Nc1cncc(F)c1)N1c2nc(-c3cccc(N4CCCC4)c3)ccc2N2CC[C@H]1C2 [Example 198]
B (EC1.5 1-25 μM)	≥ 150%	Cn1cc(NC(=O)N2c3nc(-c4cccc(N5CCCC5)c4)ccc3N3CC[C@H]2C3)cn1 [Example 199]
C (EC1.5>25 μM)	< 150%	CN(C(=O)N1c2nc(-c3cccc(C(F)(F)F)c3)ccc2N2CC[C@H]1C2)c1ccccn1 [Example 200]
B (EC1.5 1-25 μM)	≥ 150%	Cc1nc(NC(=O)N2c3nc(-c4cccc(C(F)(F)F)c4)ccc3N3CC[C@@H]2C3)sc1C [Example 201]
B (EC1.5 1-25 μM)	≥ 150%	O=C(Nc1ccncn1)N1c2nc(-c3cccc(C(F)(F)F)c3)ccc2N2CC[C@@H]1C2 [Example 202]
B (EC1.5 1-25 μM)	≥ 150%	O=C(Nc1ccc(F)cn1)N1c2nc(-c3cccc(C(F)(F)F)c3)ccc2N2CC[C@@H]1C2 [Example 203]
B (EC1.5 1-25 μM)	≥ 150%	O=C(Nc1ccc(F)cn1)N1c2nc(-c3cccc(Cl)c3)ccc2N2CC[C@@H]1C2 [Example 204]
B (EC1.5 1-25 μM)	≥ 150%	O=C(Nc1cnccn1)N1c2nc(-c3cccc(N4CCCC4)c3)ccc2N2CC[C@H]1C2 [Example 206]
A (EC1.5<1 μM)	≥ 150%	Cn1ncc2cc(NC(=O)N3c4nc(-c5cccc(N6CCCC6)c5)ccc4N4CC[C@H]3C4)ccc21 [Example 207]
B (EC1.5 1-25 μM)	≥ 150%	Cn1ccc(NC(=O)N2c3nc(-c4cccc(N5CCCC5)c4)ccc3N3CC[C@H]2C3)n1 [Example 208]
C (EC1.5>25 μM)	< 150%	COc1cc(NC(=O)N2c3nc(-c4cccc(C#N)c4)ccc3N3CCC[C@@H]2C3)ncn1 [Example 209]
B (EC1.5 1-25 μM)	≥ 150%	N#Cc1cccc(-c2ccc3c(n2)N(C(=O)Nc2cccnc2)[C@@H]2CCCN3C2)c1 [Example 210]
B (EC1.5 1-25 μM)	≥ 150%	O=C(Nc1ccncn1)N1c2nc(N3CCCC(C(F)(F)F)C3)ccc2N2CC[C@H]1C2 (stereo partly shown) [Example 211]

Compound	Tryp AVG EC1.5 (μM)	Emax
COc1cccc(-c2ccc3c(n2)N(C(=O)Nc2ccc(F)cn2)[C@@H]2CCN3C2)c1 [Example 205]	B (EC1.5 1-25 μM)	≥ 150%
